Results: PubChem BioAssay AID330 (DTP/NCI, 2004)
“And” between values parts separate entries of the source, which are not always exact repeats. Equal entries are not always repeated. Inconclusive results and toxic doses are left out.

Test system: P388 leukemia ip, CD2F1 mice, survival T/C
Assay: NCI In Vivo Anticancer Drug Screen. Data for tumor model P388 Leukemia (intraperitoneal) in CD2F1 (CDF1) mice
Conditions: endpoint: median survival time, higher = longer survival
How it was run: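 Mice carrying the transplanted tumor received test compound or vehicle. Survival was recorded in each group, and the value is the treated-group measurement divided by that of the vehicle-treated control group.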

[1] = dose: 100.0 mg/kg/injection, schedule: Q04DX003 (ip), vehicle: saline with Tween-80
[2] = dose: 200.0 mg/kg/injection, schedule: Q04DX003 (ip), vehicle: saline with Tween-80
[3] = dose: 400.0 mg/kg/injection, schedule: Q04DX003 (ip), vehicle: saline with Tween-80
[4] = dose: 60.0 mg/kg/injection, schedule: Q01DX005 (ip), vehicle: saline with Tween-80
[5] = dose: 120.0 mg/kg/injection, schedule: Q01DX005 (ip), vehicle: saline with Tween-80
[6] = dose: 240.0 mg/kg/injection, schedule: Q01DX005 (ip), vehicle: saline with Tween-80
[7] = dose: 60.0 mg/kg/injection, schedule: Q01DX005 (ip), vehicle: Klucel (hydroxypropylcellulose) (HPC)
[8] = dose: 120.0 mg/kg/injection, schedule: Q01DX005 (ip), vehicle: Klucel (hydroxypropylcellulose) (HPC)
[9] = dose: 100.0 mg/kg/injection, schedule: Q01DX001 (ip), vehicle: Klucel (hydroxypropylcellulose) (HPC)
[10] = dose: 200.0 mg/kg/injection, schedule: Q01DX001 (ip), vehicle: Klucel (hydroxypropylcellulose) (HPC)
[11] = dose: 12.5 mg/kg/injection, schedule: Q01DX009 (ip), vehicle: saline with Tween-80
[12] = dose: 50.0 mg/kg/injection, schedule: Q01DX005 (ip), vehicle: saline with Tween-80
[13] = dose: 100.0 mg/kg/injection, schedule: Q01DX005 (ip), vehicle: saline with Tween-80
[14] = dose: 200.0 mg/kg/injection, schedule: Q01DX005 (ip), vehicle: saline with Tween-80

CCN(CC)S(=O)(=O)c1ccc(-c2cc(Cl)c3cc(S(=O)(=O)F)ccc3n2)cc1
T/C [1]: 100 % of control | T/C [2]: 100 % of control | T/C [3]: 95 % of control

COc1cccc(C(c2cc3c(cc2O)OCO3)N2CCOCC2)c1O (stereo unspecified)
T/C [4]: 114 % of control (2×) and 116 % of control | T/C [5]: 108 % of control and 116 % of control and 122 % of control | T/C [6]: 109 % of control and 112 % of control | T/C (dose: 480.0 mg/kg/injection, schedule: Q01DX005 (ip), vehicle: saline with Tween-80): 118 % of control

CC(=O)c1c(O)c2cccc3c2n(c1=O)CCC3
T/C [7]: 96 % of control | T/C [8]: 97 % of control

O=[N+]([O-])c1ccc(N/N=C(\CI)c2ccccc2)c([N+](=O)[O-])c1
T/C (dose: 75.0 mg/kg/injection, schedule: Q01DX001 (ip), vehicle: saline with Tween-80): 105 % of control | T/C (dose: 150.0 mg/kg/injection, schedule: Q01DX001 (ip), vehicle: saline with Tween-80): 105 % of control | T/C (dose: 300.0 mg/kg/injection, schedule: Q01DX001 (ip), vehicle: saline with Tween-80): 120 % of control

CCOC(=O)Nc1cc(NC(=O)OCC)cc([N+](=O)[O-])c1
T/C [1]: 100 % of control | T/C [2]: 104 % of control | T/C [3]: 90 % of control

CC1Cc2ccc3c(c2C(c2ccc4c(c2)OCO4)C1C)OCO3 (stereo unspecified)
T/C (dose: 60.0 mg/kg/injection, schedule: Q01DX005 (ip), vehicle: Klucel + Tween-80): 103 % of control | T/C (dose: 120.0 mg/kg/injection, schedule: Q01DX005 (ip), vehicle: Klucel + Tween-80): 97 % of control | T/C (dose: 240.0 mg/kg/injection, schedule: Q01DX005 (ip), vehicle: Klucel + Tween-80): 86 % of control

CCN(CC)C/C(C)=C(/c1ccccc1)c1ccccc1S(N)(=O)=O
T/C [9]: 116 % of control | T/C [10]: 111 % of control

c1ccc(C2=NCN3CC23c2ccccc2)cc1 (stereo unspecified)
T/C [11]: 98 % of control | T/C (dose: 25.0 mg/kg/injection, schedule: Q01DX009 (ip), vehicle: saline with Tween-80): 98 % of control | T/C (dose: 50.0 mg/kg/injection, schedule: Q01DX009 (ip), vehicle: saline with Tween-80): 99 % of control | T/C (dose: 100.0 mg/kg/injection, schedule: Q01DX009 (ip), vehicle: saline with Tween-80): 95 % of control

CCN(CC)CCCNc1cnc2ccc(OC)cc2n1
T/C (dose: 25.0 mg/kg/injection, schedule: Q04DX003 (ip), vehicle: saline): 94 % of control | T/C (dose: 50.0 mg/kg/injection, schedule: Q04DX003 (ip), vehicle: saline): 91 % of control | T/C (dose: 100.0 mg/kg/injection, schedule: Q04DX003 (ip), vehicle: saline): 103 % of control

COc1cccc2c1C(=O)c1c(O)c3c(c(O)c1C2=O)CC(O)(C(C)=O)CC3OC1CC(NC(=O)C(F)(F)F)C(OC(=O)c2ccc([N+](=O)[O-])cc2)C(CNC(=O)C(F)(F)F)O1 (stereo unspecified)
T/C (dose: 3.13 mg/kg/injection, schedule: Q04DX003 (ip), vehicle: distilled water + Tween-80): 92 % of control | T/C (dose: 6.25 mg/kg/injection, schedule: Q04DX003 (ip), vehicle: distilled water + Tween-80): 100 % of control | T/C (dose: 12.5 mg/kg/injection, schedule: Q04DX003 (ip), vehicle: distilled water + Tween-80): 96 % of control | T/C (dose: 25.0 mg/kg/injection, schedule: Q04DX003 (ip), vehicle: distilled water + Tween-80): 96 % of control | T/C (dose: 50.0 mg/kg/injection, schedule: Q04DX003 (ip), vehicle: distilled water + Tween-80): 100 % of control

CC(=O)Nc1ccn(C2OC(COC(C)=O)C(OC(C)=O)C2OC(C)=O)c(=O)n1 (stereo unspecified)
T/C (dose: 62.5 mg/kg/injection, schedule: Q01DX009 (ip), vehicle: Klucel (hydroxypropylcellulose) (HPC)): 102 % of control | T/C (dose: 125.0 mg/kg/injection, schedule: Q01DX009 (ip), vehicle: Klucel (hydroxypropylcellulose) (HPC)): 119 % of control | T/C (dose: 250.0 mg/kg/injection, schedule: Q01DX009 (ip), vehicle: Klucel (hydroxypropylcellulose) (HPC)): 157 % of control | T/C (dose: 500.0 mg/kg/injection, schedule: Q01DX009 (ip), vehicle: Klucel (hydroxypropylcellulose) (HPC)): 155 % of control | T/C (dose: 1000.0 mg/kg/injection, schedule: Q01DX009 (ip), vehicle: Klucel (hydroxypropylcellulose) (HPC)): 174 % of control

Nc1ccn([C@@H](C=O)O[C@@H](C=O)CO)c(=O)n1
T/C (dose: 44.0 mg/kg/injection, schedule: Q04DX003 (ip), vehicle: saline): 112 % of control | T/C (dose: 66.0 mg/kg/injection, schedule: Q04DX003 (ip), vehicle: saline): 120 % of control | T/C (dose: 100.0 mg/kg/injection, schedule: Q01DX009 (ip), vehicle: saline): 150 % of control | T/C (dose: 200.0 mg/kg/injection, schedule: Q01DX009 (ip), vehicle: saline): 180 % of control

COC(=O)C(CCCN=C(N)N[N+](=O)[O-])NC(=O)c1ccc2c(c1O)C(=O)c1ccccc1C2=O (stereo unspecified)
T/C (dose: 100.0 mg/kg/injection, schedule: Q04DX002 (ip), vehicle: saline with Tween-80): 96 % of control | T/C (dose: 200.0 mg/kg/injection, schedule: Q04DX002 (ip), vehicle: saline with Tween-80): 92 % of control | T/C (dose: 400.0 mg/kg/injection, schedule: Q04DX002 (ip), vehicle: saline with Tween-80): 92 % of control

C=C1C(=O)OC2CC(C)C3CC(O)OC(O)C3(C)CC12 (stereo unspecified)
T/C (dose: 1.56 mg/kg/injection, schedule: Q01DX009 (ip), vehicle: saline): 115 % of control | T/C (dose: 3.12 mg/kg/injection, schedule: Q01DX009 (ip), vehicle: saline with Tween-80): 102 % of control | T/C (dose: 3.13 mg/kg/injection, schedule: Q01DX009 (ip), vehicle: saline): 117 % of control | T/C (dose: 6.25 mg/kg/injection, schedule: Q01DX009 (ip), vehicle: saline with Tween-80): 107 % of control | T/C [11]: 99 % of control and 113 % of control

CC1(C)CCC2(C(=O)OC3OC(CO)C(O)C(O)C3O)CCC3(C)C(=CCC4C5(C)CCC(OC6OC(CO)C(O)C(O)C6O)C(C)(C)C5CCC43C)C2C1 (stereo unspecified)
T/C (dose: 3.12 mg/kg/injection, schedule: Q01DX005 (ip), vehicle: Klucel (hydroxypropylcellulose) (HPC)): 98 % of control | T/C (dose: 6.25 mg/kg/injection, schedule: Q01DX005 (ip), vehicle: Klucel (hydroxypropylcellulose) (HPC)): 104 % of control | T/C (dose: 12.5 mg/kg/injection, schedule: Q01DX005 (ip), vehicle: Klucel (hydroxypropylcellulose) (HPC)): 104 % of control | T/C (dose: 25.0 mg/kg/injection, schedule: Q01DX005 (ip), vehicle: Klucel (hydroxypropylcellulose) (HPC)): 95 % of control | T/C (dose: 50.0 mg/kg/injection, schedule: Q01DX005 (ip), vehicle: Klucel (hydroxypropylcellulose) (HPC)): 102 % of control

O=C1OC(C(O)CO)C(=N\Nc2ccc(Cl)cc2)/C1=N/Nc1ccccc1 (stereo unspecified)
T/C [9]: 103 % of control | T/C [10]: 103 % of control | T/C (dose: 400.0 mg/kg/injection, schedule: Q01DX001 (ip), vehicle: Klucel (hydroxypropylcellulose) (HPC)): 110 % of control

N#C/C(=C\Nc1ccccn1)C(=O)c1ccco1
T/C [4]: 91 % of control | T/C [5]: 100 % of control

O=[N+]([O-])c1c(N2CCN(CCO)CC2)nc2ccccn12
T/C (dose: 12.5 mg/kg/injection, schedule: Q01DX009 (ip), vehicle: Klucel (hydroxypropylcellulose) (HPC)): 99 % of control | T/C (dose: 25.0 mg/kg/injection, schedule: Q01DX009 (ip), vehicle: Klucel (hydroxypropylcellulose) (HPC)): 91 % of control | T/C (dose: 50.0 mg/kg/injection, schedule: Q01DX009 (ip), vehicle: Klucel (hydroxypropylcellulose) (HPC)): 105 % of control

COc1nc2n[nH]nc2c(=O)n1C
T/C [4]: 104 % of control | T/C [5]: 102 % of control | T/C [6]: 101 % of control

O=C1NC(=O)C2(CC3CCCC(C2)N3)N1 (stereo unspecified)
T/C (dose: 100.0 mg/kg/injection, schedule: Q04DX003 (ip), vehicle: water): 101 % of control | T/C (dose: 200.0 mg/kg/injection, schedule: Q04DX003 (ip), vehicle: water): 99 % of control | T/C (dose: 400.0 mg/kg/injection, schedule: Q04DX003 (ip), vehicle: water): 103 % of control

COc1ccccc1C(C)c1cc2c(cc1OC)OCO2 (stereo unspecified)
T/C [12]: 100 % of control | T/C [13]: 101 % of control | T/C [14]: 93 % of control

Cc1cc(O)c(C(=O)/C=C/c2ccnc3ccccc23)c(=O)o1
T/C [7]: 104 % of control | T/C [8]: 108 % of control

CC(=O)NSCC(NC(=O)OC(C)(C)C)C(=O)O (stereo unspecified)
T/C [12]: 97 % of control | T/C [13]: 102 % of control | T/C [14]: 95 % of control
